What was measured:
human NTSR-1 [1] = target: T1, human NTSR-1 (Homo sapiens (Human), UniProt P30989); experiment: radioligand competitive binding assay using ^177Lu labeled C-1 as reference radioligand; conditions: for Relative Binding Affinity: Mean IC50 of C-1/Mean IC50 of the test compound; for IC50: Nonlin fit, single assay, HT-29 cells
Procedure: The binding affinities of test compounds were determined by a radioligand competitive binding assay using ^177Lu labeled C-1 as the reference radioligand.
Briefly, 100 μL HT-29 cells expressing human NTSR-1 at a density of 1˜2×10^6 cells/mL were mixed with binding buffer (RPMI-1640 medium supplemented with 0.25% bovine serum albumin) in each well of the 96-well filter plate (Millipore). Then the cells in each well were incubated with ^177Lu—C-1 (0.55 μCi/well) and the test compound under 37° C. for 1 hr (n=3). After incubation, unbound ^177Lu—C-1 and the test compound in each well was removed by filtration using a Multiscreen vacuum manifold (Millipore) and the cells were further rinsed with the binding buffer for 5 times. The cells from each well were then collected and radioactivity of the cells in each well was individually measured by y counter (2480 WIZARD2, PerkinElmer). The best-fit IC50 value of test compounds (inhibitory concentration when 50% of the bound ^177Lu—C-1 on cells were displaced) were calculated by fitting the data with nonlinear regression using GraphPad Prism 8.0.1.

human NTSR-1 [2] = target: T1, human NTSR-1; experiment: FLIPR assay, inhibition of Neurotensin-induced intracellular-calcium mobilization; format: cell-based; conditions: for IC50 compared to comparator compound C-2: FLIPR assay; for IC50: HEK293 cells stably expressing human NTSR-1, mean, read-out: IC50 (nM) in FLIPR Assays
Procedure: Binding affinities of the representative compounds were also evaluated by FLIPR assay. Neurotensin receptor 1 belongs to the G-protein coupled receptors (GPCR) family. Activation of NTSR-1 by its ligand Neurotensin can induce intracellular-calcium mobilization. In FLIPR assay, the test compound and Neurotensin were incubated together with cells expressing NTSR-1 to measure inhibition of the intracellular-calcium mobilization by the test compound so that to evaluate its binding affinity.
Briefly, HEK293 cells stably expressing human NTSR-1 were plated in 384-well plates. 20 ul cell suspension at a concentration of 10×10^5 per ml was seeded in each well and incubated at 37° C. 5% CO2 overnight. Then the cells in each well were mixed with 20 ul probenecid assay buffer, 20 ul 8 uM Fluo-4 Direct™ Loading Buffer, 6×EC80 of Neurotensin and 10 μl of the diluted test compound, and incubated at 37° C. 5% CO2 for 50 min followed by incubation at room temperature for 10 min. The plate was then subject to FLIPR analysis.

[3] = test system: ASPC-1 tumor-bearing mice; experiment: Biodistribution of radionuclide labeled complexes in ASPC-1 tumor-bearing mice; format: in vivo, BALB/c nude mice; conditions: ^177Lu-labeled complex
Summary of the method: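 BALB/c nude mice bore subcutaneous flank xenografts from ~4×10^6 NTSR-1-expressing cells, grown 2-4 weeks to ~0.05-0.50 g. Labeled compound, ~30-50 μCi (30-250 μCi/nmol specific activity) in 0.9% NaCl, was given by tail vein; organs were excised, weighed and γ-counted at various times for % ID and % ID/g.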

[4] = read-out: LogIC50 Mean (converted)

T1 sequence (P30989 whole entry): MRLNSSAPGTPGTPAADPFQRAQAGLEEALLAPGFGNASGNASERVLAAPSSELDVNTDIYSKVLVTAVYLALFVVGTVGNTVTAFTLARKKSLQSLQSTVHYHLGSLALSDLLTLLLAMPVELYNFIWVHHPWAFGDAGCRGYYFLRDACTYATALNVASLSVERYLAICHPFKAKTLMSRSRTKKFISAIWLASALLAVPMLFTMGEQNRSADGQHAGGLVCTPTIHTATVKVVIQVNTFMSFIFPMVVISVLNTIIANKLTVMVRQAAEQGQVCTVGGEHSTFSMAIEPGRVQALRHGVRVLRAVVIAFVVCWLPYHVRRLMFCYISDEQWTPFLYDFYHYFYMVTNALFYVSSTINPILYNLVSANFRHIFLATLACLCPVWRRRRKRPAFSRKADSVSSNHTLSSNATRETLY

Relative Binding Affinity (human NTSR-1 [1])	AUC (0-72 h) ratio Tumor/Blood [3]	AUC (0-72 h) ratio Tumor/Kidney [3]	AUC (0-72 h) ratio Tumor/Liver [3]	AUC (0-72 h) ratio Tumor/Lung [3]	SMILES	other results
107.6					COc1cccc(OC)c1-c1cc(C(=O)NC2(C(=O)O)C3CC4CC(C3)CC2C4)nn1-c1ccc(NCCCN(C)C)cc1C(C)C (centres unmarked) [II-1, 2-(5-(2,6-dimethoxyphenyl)-1-(4-((3-(dimethylamino)propyl)amino)-2-isopropylphenyl)-1H-pyrazole-3-carboxamido)adamantane-2-carboxylic acid]	improvement of potency vs SR142948 (C-3) (human NTSR-1 [1]; removal of the carbonyl group from the amide group): ≥ 10 fold
28.3	58.0	15.4	41.1	31.3	COc1cccc(OC)c1-c1cc(C(=O)NC2(C(=O)O)C3CC4CC(C3)CC2C4)nn1-c1ccc(NCCOCCOCCNC(=O)CN2CCN(CC(=O)O)CCN(CC(=O)O)CCN(CC(=O)O)CC2)cc1C(C)C (centres unmarked) [Compound I-10, 2,2′,2″-(10-(2-((2-(2-(2-((4-(3-((2-carboxyadamantan-2-yl)carbamoyl)-5-(2,6-dimethoxyphenyl)-1H-pyrazol-1-yl)-3-isopropylphenyl)amino)ethoxy)ethoxy)ethyl)amino)-2-oxoethyl)-1,4,7,10-tetraazacyclododecane-1,4,7-triyl)triacetic acid]	binding affinity vs 3BP-227 (C-2) on removal of the tertiary amine motif in the linker (human NTSR-1 [1]): not compromise the binding affinity
14.6					COc1cccc(OC)c1-c1cc(C(=O)NC2(C(=O)O)C3CC4CC(C3)CC2C4)nn1-c1ccc(N(CCCN(C)C)C(=O)COCCOCCNC(=O)CN2CCN(CC(=O)O)CCN(CC(=O)O)CC2)cc1C(C)C (centres unmarked) [Compound I-13]	
243.5					COc1cccc(OC)c1-c1cc(C(=O)NC2(C(=O)O)C3CC4CC(C3)CC2C4)nn1-c1ccc(CCCCN(C)CCCN(C)C(=O)CN2CCN(CC(=O)O)CCN(CC(=O)O)CCN(CC(=O)O)CC2)cc1C(C)C (centres unmarked) [Compound I-9, 2,2′,2″-(10-(2-((3-((4-(4-(3-((2-carboxyadamantan-2-yl)carbamoyl)-5-(2,6-dimethoxyphenyl)-1H-pyrazol-1-yl)-3-isopropylphenyl)butyl)(methyl)amino)propyl)(methyl)amino)-2-oxoethyl)-1,4,7,10-tetraazacyclododecane-1,4,7-triyl)triacetic acid]	
11.2					COc1cccc(OC)c1-c1cc(C(=O)NC2(C(=O)O)C3CC4CC(C3)CC2C4)nn1-c1ccc(NC(=O)COCCOCCNC(=O)CN2CCN(CC(=O)O)CCN(CC(=O)O)CCN(CC(=O)O)CC2)cc1C(C)C (centres unmarked) [Compound I-12]	
156.7	34.4	18.1	23.1	40.1	COc1cccc(OC)c1-c1cc(C(=O)NC2(C(=O)O)C3CC4CC(C3)CC2C4)nn1-c1ccc(OCCCN(C)CCCN(C)C(=O)CN2CCN(CC(=O)O)CCN(CC(=O)O)CCN(CC(=O)O)CC2)cc1C(C)C (centres unmarked) [Compound I-7, 2,2′,2″-(10-(2-((3-((3-(4-(3-((2-carboxyadamantan-2-yl)carbamoyl)-5-(2,6-dimethoxyphenyl)-1H-pyrazol-1-yl)-3 isopropylphenoxy)propyl)(methyl)amino)propyl)(methyl)amino)-2-oxoethyl)-1,4,7,10-tetraazacyclododecane-1,4,7-triyl)triacetic acid]	IC50 compared to comparator compound C-2 (human NTSR-1 [2]): lower IC50; IC50 (human NTSR-1 [2]): 11.7 nM

Second part, the compound before the results:

SMILES	Relative Binding Affinity (human NTSR-1 [1])	AUC (0-72 h) ratio Tumor/Blood [3]	AUC (0-72 h) ratio Tumor/Kidney [3]	AUC (0-72 h) ratio Tumor/Liver [3]	AUC (0-72 h) ratio Tumor/Lung [3]	other results
COc1cccc(OC)c1-c1cc(C(=O)NC2(C(=O)O)C3CC4CC(C3)CC2C4)nn1-c1ccc(NC(=O)CCCN(C)CCCN(C)C(=O)CN2CCN(CC(=O)O)CCN(CC(=O)O)CCN(CC(=O)O)CC2)cc1C(C)C (centres unmarked) [Compound I-5, 2,2′,2″-(10-(2-((3-((4-((4-(3-((2-carboxyadamantan-2-yl)carbamoyl)-5-(2,6-dimethoxyphenyl)-1H-pyrazol-1-yl)-3-isopropylphenyl)amino)-4-oxobutyl)(methy)amino)propyl)(methyl)amino)-2-oxoethyl)-1,4,7,10-tetraazacyclododecane-1,4,7-triyl)triacetic acid]	146.4	10.0	14.2	16.7	48.3	IC50 compared to comparator compound C-2 (human NTSR-1 [2]): lower IC50; IC50 (human NTSR-1 [2]): 26.9 nM
COc1cccc(OC)c1-c1cc(C(=O)NC2(C(=O)O)C3CC4CC(C3)CC2C4)nn1-c1ccc(NCCCN(C)CCCNC(=O)CN2CCN(CC(=O)O)CCN(CC(=O)O)CCN(CC(=O)O)CC2)cc1C(C)C (centres unmarked) [Compound I-2, 2,2′,2″-(10-(2-((3-((3-((4-(3-((−2-carboxyadamantan-2-yl)carbamoyl)-5-(2,6-dimethoxyphenyl)-1H-pyrazol-1-yl)-3-isopropylphenyl)amino)propyl)(methyl)amino)propy)amino)-2-oxoethyl)-1,4,7,10-tetraazacyclododecane-1,4,7-triyl)triacetic acid]		12.5	10.4	10.6	39.4	IC50 (human NTSR-1 [1]; read-out: IC50 (nM) Mean): 0.559 nM; IC50 (human NTSR-1 [1]; [4]): 0.558 nM
CC(=O)N[C@@H](CCCCNC(=O)CN1CCN(CC(=O)O)CCN(CC(=O)O)CCN(CC(=O)O)CC1)C(=O)N1CCC[C@H]1C(=O)N(C)[C@@H](CCCNC(=N)N)C(=O)N[C@@H](CCCNC(=N)N)C(=O)N1CCC[C@H]1C(=O)N[C@@H](Cc1ccc(O)cc1)C(=O)N[C@H](C(=O)N[C@@H](CC(C)C)C(=O)O)C(C)(C)C [Compound C-1, reference compound]	1.00					IC50 (human NTSR-1 [1]; read-out: IC50 (nM) Mean): 40.3 nM; IC50 (human NTSR-1 [1]; [4]): 40.4 nM
COc1cccc(OC)c1-c1cc(C(=O)NC2(C(=O)O)C3CC4CC(C3)CC2C4)nn1-c1ccc(N(CCCN(C)C)C(C)=O)cc1C(C)C (centres unmarked) [Compound C-4, reference compound]	22.0					
COc1cccc(OC)c1-c1cc(C(=O)NC2(C(=O)O)C3CC4CC(C3)CC2C4)nn1-c1ccc(NCCCN(C)CCCNC(=O)COCCOCCNC(=O)CN2CCN(CC(=O)O)CCN(CC(=O)O)CCN(CC(=O)O)CC2)cc1C(C)C (centres unmarked) [Compound I-3, 2,2′,2″-(10-(19-((4-(3-((2-carboxyadamantan-2-yl)carbamoyl)-5-(2,6 dimethoxyphenyl)-1H-pyrazol-1-yl)-3-isopropylphenyl)amino)-16-methyl-2,11-dioxo-6,9-dioxa-3,12,16-triazanonadecyl)-1,4,7,10-tetraazacyclododecane-1,4,7-triyl)tracetic acid]	519.8					
COc1cccc(OC)c1-c1cc(C(=O)NC2(C(=O)O)C3CC4CC(C3)CC2C4)nn1-c1ccc(N(CCCN(C)C)C(=O)COCCOCCNC(=O)CN2CCN(CC(=O)O)CCN(CC(=O)O)CCN(CC(=O)O)CC2)cc1C(C)C (centres unmarked) [Compound I-6]	3.1					IC50 compared to comparator compound C-2 (human NTSR-1 [2]): lower IC50; IC50 (human NTSR-1 [2]): 16.2 nM
COc1cccc(OC)c1-c1cc(C(=O)NC2(C(=O)O)C3CC4CC(C3)CC2C4)nn1-c1ccc(N(C)CCCN(C)CCCN(C)C(=O)CN2CCN(CC(=O)O)CCN(CC(=O)O)CCN(CC(=O)O)CC2)cc1C(C)C (centres unmarked) [Compound I-1, 2,2′,2″-(10-(2-((3-((3-((4-(3-((2-carboxyadamantan-2-yl)carbamoyl)-5-(2,6-dimethoxyphenyl)-1H-pyrazol-1-yl)-3-isopropylphenyl)(methyl)amino)propyl)(methyl)amino)propyl)(methyl)amino)-2-oxoethyl)-1,4,7,10-tetraazacyclododecane-1,4,7-triyl)triacetic acid]	82.6	36.5	5.6	12.8	39.3	IC50 (human NTSR-1 [1]; read-out: IC50 (nM) Mean): 0.465 nM; IC50 (human NTSR-1 [1]; [4]): 0.465 nM; binding affinity compared to comparator compound C-1 or C-3 (human NTSR-1 [1]; single radioligand competitive binding assay): higher binding affinity

— US20240287046A1, “COMPOUNDS AND RADIOLIGANDS FOR TARGETING NEUROTENSIN RECEPTOR AND USES THEREOF” (Full-Life Technologies HK Limited, priority 2022, published 2024)
